Data reported in patent US20060128727A1, “Fungicidal mixtures based on a triazolopyrimidine derivative” (priority 2003, published 2006).

Tested on: Plasmopara viticola
Assay: Activity against peronospora of grapevines caused by Plasmopara viticola (protective spray test on potted vines)
Type: in vivo
Conditions: individual active compound, vines cultivar Riesling
Method: The active compounds, separately or jointly, were prepared as a stock solution comprising 0.25% by weight of active compound in acetone or DMSO. 1% by weight of the emulsifier Uniperol® EL (wetting agent having emulsifying and dispersant action based on ethoxylated alkylphenols) was added to this solution, and the mixture was diluted with water to the desired concentration. USE EXAMPLE
Leaves of potted vines of the cultivar “Riesling” were sprayed to runoff point with an aqueous suspension having the concentration of active compound stated below. The next day, the undersides of the leaves were inoculated with an aqueous zoospore suspension of Plasmopara viticola. The grapevines were then initially placed in a water-vapor-saturated chamber at 24° C. for 48 hours and then in a greenhouse at 20-30° C. for 5 days. After this period of time, the plants were again placed in a humid chamber for 16 hours to promote sporangiophore eruption. The extent of the development of the disease on the undersides of the leaves was then determined visually.
The visually determined percentages of infected leaf areas were converted into efficacies in % of the untreated control:
The efficacy (E) is calculated as follows using Abbot's formula: E=(1−α/β)·100 • α corresponds to the fungicidal infection of the treated plants in % and • β corresponds to the fungicidal infection of the untreated (control) plants in %
An efficacy of 0 means that the infection level of the treated plants corresponds to that of the untreated control plants; an efficacy of 100 means that the treated plants were not infected.
The expected efficacies of mixtures of active compounds were determined using Colby's formula (Colby, S. R. “Calculating synergistic and antagonistic responses of herbicide combinations”, Weeds, 15, 20-22, 1967) and compared with the observed efficacies.
Colby's Formula: E=x+y−x·y/100 • E expected efficacy, expressed in % of the untreated control, when using the mixture of the active compounds A and B at the concentrations a and b • x efficacy, expressed in % of the untreated control, when using the active compound A at the concentration a • y efficacy, expressed in % of the untreated control, when using the active compound B at the concentration b

Row | SMILES | Efficacy in % of the untreated control (1 ppm in the spray liquor) [%] | Efficacy in % of the untreated control (4 ppm in the spray liquor) [%] | Efficacy in % of the untreated control (63 ppm in the spray liquor) [%]
1 | CC#Cc1cc(C)nc(Nc2ccccc2)n1 [II-3, (4-methyl-6-prop-1-ynylpyrimidin-2-yl)phenylamine] | 0 | 0 | 0
2 | Cc1cc(C2CC2)nc(Nc2ccccc2)n1 [II-2, (4-cyclopropyl-6-methylpyrimidin-2-yl)phenylamine] | 0 | 0 | 0
3 | CC1CCN(c2c(-c3c(F)cc(F)cc3F)c(Cl)nc3ncnn23)CC1 [I, 5-chloro-7-(4-methylpiperidin-1-yl)-6-(2,4,6-trifluorophenyl)-[1,2,4]triazolo[1,5-a]pyrimidine] |  | 56 | 
4 | C[C@H](Nc1c(-c2c(F)cc(F)cc2F)c(Cl)nc2ncnn12)C(F)(F)F [Comparison B] |  | 11 | 
5 | Cc1cc(C)nc(Nc2ccccc2)n1 [II-1, (4,6-dimethylpyrimidin-2-yl)phenylamine] | 0 | 0 | 0
6 | CC1CCN(c2c(-c3c(F)cccc3Cl)c(Cl)nc3ncnn23)CC1 [Comparison A] |  | 0 | 
